The source of these data is patent US10030016B2 (Sunesis Pharmaceuticals, Inc., priority 2009, dated 2018).

One experiment addresses PDK1 (Homo sapiens (Human), UniProt O15530). Briefly: PDK1 kinase assay (coupled PDK1/AKT/FAM-crosstide assay, IMAP fluorescence polarization). The class given is biochemical. As to the method: A PDK1 kinase assay was performed as follows. PDK1 (amino acids 51-359) and AKT2 (amino acids 140-467 fused to PIFtide, amino acids […]) were expressed as N-terminally tagged GST fusion proteins in insect cells and purified to homogeneity. Enzyme activity was determined in a coupled PDK1/AKT/FAM-crosstide assay and phosphorylation of FAM-crosstide was determined by standard IMAP protocol (Molecular Devices). For inhibition studies, compounds were titrated 4-fold in DMSO and diluted 40-fold into assay buffer (10 mM Tris HCl pH7.2; 10 mM MgCl2; 0.01% Triton X-100; 1 mM DTT) containing PDK1, AKT2, and FAM-crosstide (final concentrations: 0.75 nM PDK1, 10 nM unphosphorylated AKT2, and 100 nM crosstide substrate). The kinase reaction was initiated by adding ATP to a final concentration of 40 μM of PDK1 and incubated at 25° C. for 30 min. To detect assay product, the kinase reaction was combined with Progressive Binding Solution (1:600 Progressive Binding Reagent, 50% Buffer A, 50% Buffer B, Molecular Devices) in a 1:3 ratio. The mixture was incubated for 2 hours at 25° C. and the plate was scanned on an Analyst AD with excitation at 485 nm and emission at 530 nm. The fluorescence polarization value “P” is defined by the equation below. The value “mP” is generated by multiplying the P value for each reaction well by a factor of 1000. The value “ΔmP” for each well is the mP value for that well minus the mP value for the average negative control. P=(Fpar−Fperp)/(Fpar+Fperp) Eq.:
Where “par” is fluorescence intensity parallel to the excitation plane; and “perp” is fluorescence intensity perpendicular to the excitation plane. ΔmP values were plotted as a function of compound concentration and the data were analyzed with a 4-parameter fit using GraphPad Prism software.
(In fluorescence polarisation assays a small probe gives low polarisation when free and higher when bound to something large.)

Experiment [1] concerns phospho-akt (Thr308) in PC-3 cells. The experiment is described as follows: Inhibition of phospho-akt (Thr308) in PC-3 cells, MSD phospho-akt 308 ELISA kit. The note with it: 2 hours, no serum, read-out: EC50. The experiment is classed as cell-based. As to the method:
PC-3 cells were harvested by trypsin and counted. Cells were plated in coated 96-well flat bottom plates (plate 15,000 cells/well in 100 ul growth media (10% FBS, 1× pen-strep) an place in an incubator overnight.
Subject inhibitors were stocked at 50 mM, then diluted to 30 mM (4.8 μl cpd plus […] DMSO) in 100% DMSO. Three-fold dilutions were performed from 30 mM stock. (4 μl into 8 ul 100% DMSO). Aliquots of 1.0 μl of inhibitor solution were transferred into SF Medium (using deep well block).
Control wells were prepared as follows. For DMSO high controls, 1.0 μl of 100% DMSO was added into 1.0 ml SF. For low controls for PC-3 cells, 5 μM of Wortmannin (10 μl of 1 mM Wortmannin stock was added into 2 ml SF Medium. The supernatant media was removed and the plate was blotted. 100 μl of controls/media or compound/media were added to cells and placed in incubator for 2 hours. The supernatant media was removed and the plate was blotted. 55 μl of the MSD complete lysis buffer was added (10 mls Tris Lysis buffer, 200 ul protease inhibitor, 100 ul phosphatase inhibitor 1, and 100 ul phosphatase inhibitor II). The plate was placed on a plate shaker for 60 mins at 4 deg.
MSD plates were blocked for 1 hour by adding 150 μl of Blocking Solution (3% BSA) to each well. The MSD plates were washed 4× with TBST, and 50 μl lysates were transferred to MSD plate and place on plate shaker shake at 4 degrees O/N, light shaking (speed 3.5). The plate was washed 4× with TBST.
25 μl of Ab detection solution was added to each well. The plate was sealed and incubated 1 hr RT, light shaking (speed 3.5). The plate was washed 4 times with TBST. 150 μl of Read Buffer was added (5 mls 4×MSD Read Buffer+15 mls water). Finally the plate was read immediately on the MSD plate reader.
A general note: ELISA stands for enzyme-linked immunosorbent assay.

Where [2] appears, read: inhibition of phospo-PDK1 in vitro.
Where [3] appears, read: Homo sapiens, inhibition of P308 Akt in PC-3 cells, MSD.
The mark [4] stands for this setting: Homo sapiens, inhibition of P308 Akt in PC-3 cells using MSD.
The mark [5] stands for this setting: inhibition of P308 Akt in PC-3 cells using MSD.

Where a name gives a salt, the structure may show the parent alone. Read-outs that look alike come from different tables or passages of the source.

Sequence of PDK1 (O15530 51-359): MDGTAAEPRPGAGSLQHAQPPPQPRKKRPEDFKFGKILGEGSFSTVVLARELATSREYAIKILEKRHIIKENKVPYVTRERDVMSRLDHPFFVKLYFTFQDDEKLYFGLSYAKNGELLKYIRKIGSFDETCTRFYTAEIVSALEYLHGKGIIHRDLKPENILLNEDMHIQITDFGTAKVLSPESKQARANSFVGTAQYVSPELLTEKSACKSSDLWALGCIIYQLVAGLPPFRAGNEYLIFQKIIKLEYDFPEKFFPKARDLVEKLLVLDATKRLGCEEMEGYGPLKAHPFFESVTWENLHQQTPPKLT

As a reminder, the IC50 is the concentration needed to halve the response being measured. In general, EC50 refers to the midpoint of the concentration-response curve. Compound `C[C@H](NC(=O)c1cccnc1NCc1ccc(-c2ccc3ncnc(N)c3c2)s1)c1ccc(F)cn1` [Example 3.66, 2-({[5-(4-aminoquinazolin-6-yl)thiophen-2-yl]methyl}amino)-N-[(1S)-1-(5-fluoropyridin-2-yl)ethyl] pyridine-3-carboxamide (TFA salt)] had a half-inhibitory concentration (IC50) at PDK1 (setting [2]) of 0.1 to 1 µM. In addition, the EC50 in experiment [1] (setting [3]) fell in the range of 1 to 10 µM. As to `COc1ccc([C@H](COc2ccc(N)c(N)c2)Nc2ncccc2C(=O)N[C@@H](C)c2ccc(F)c(F)c2)cc1` [Example 16.6, 2-((R)-2-(3,4-diaminophenoxy)-1-(4-methoxyphenyl)ethylamino)-N-((S)-1-(3,4-difluorophenyl)ethyl)nicotinamide], the IC50 at PDK1 (setting [2]) is over 5 µM. Moreover, in experiment [1] (setting [3]), the EC50 is over 10 µM.

The compound `C[C@H](NC(=O)c1cccnc1NCc1ccc(-c2ccc3ncnc(NC4COC4)c3c2)s1)c1ccc(F)c(F)c1` [Example 4.35] came in with an IC50 against PDK1 (setting [2]) of under 0.1 µM. In addition, in experiment [1] (setting [3]), the EC50 lay in the range of 1 to 10 µM. Regarding `Nc1n[nH]c2ncc(-c3ccc(CNc4ncc(C(F)(F)F)cc4C(=O)Nc4cccc(F)c4)cc3)cc12` [Example 262, 2-(4-(3-amino-1H-pyrazolo [3,4-b]pyridin-5-yl)benzylamino)-N-(3-fluorophenyl)-5-(trifluoromethyl) nicotinamide], the IC50 against PDK1 (inhibition of PDK1 in vitro) is under 0.1 µM. In addition, the EC50 in experiment [1] (setting [4]) was under 1 µM. Consider `C[C@@H](c1ccc(F)c(F)c1)n1cnc2c(C#N)cnc(NCc3ccc(-c4ccc5ncnc(N)c5c4)s3)c2c1=O` [Ex. 7.25, (S)-5-(((5-(4-aminoquinazolin-6-yl)thiophen-2-yl)methyl)amino)-3-(1-(3,4-difluorophenyl)ethyl)-4-oxo-3,4-dihydropyrido[4,3-d]pyrimidine-8-carbonitrile], for which, at PDK1 (setting [2]), the 50% inhibitory concentration (IC50) is under 0.1 µM. Moreover, the EC50 in experiment [1] (setting [3]) was under 1 µM. In turn, `C[C@H](NC(=O)c1cccnc1NCc1ccc(-c2ccc(N)nc2)cc1)c1ccc(F)c(F)c1` [Example 369, (S)-2-(4-(6-aminopyridin-3-yl)benzylamino)-N-(1-(3,4-difluorophenyl)ethyl) nicotinamide] gave an IC50 against PDK1 (inhibition of PDK1 in vitro) of under 0.1 µM. For the same compound, in experiment [1] (setting [4]), the EC50 lay within 1 to 10 µM. On to “(S)-2-(4-(4-amino-7-methyl- 7H-pyrrolo[2,3-d]pyrimidin- 5-yl)benzylamino)-fluorophenyl) ethyl)nicotinamide [Example 97]”, for which, at PDK1 (inhibition of PDK1 in vitro), the IC50 is under 0.1 µM. Moreover, the EC50 in experiment [1] (setting [5]) was under 1 µM. The compound `C[C@H](NC(=O)c1cccnc1NCc1ccc(-c2cc3c(cn2)nc(N)n3C)s1)c1ccc(F)cc1` [Example 2.23, (S)-2-(((5-(2-amino-1-methyl-1H-imidazo[4,5-c]pyridin-6-yl)thiophen-2-yl)methyl)amino)-N-(1-(4-fluorophenyl)ethyl) nicotinamide] registered an IC50 at PDK1 (setting [2]) of 1 to 5 µM. The EC50 in experiment [1] (setting [3]) was over 10 µM. The compound `C[C@H](NC(=O)c1nc(C#N)cnc1NCc1ccc(-c2cnc(N)c(N3CCC[C@H](N)C3)n2)cc1)c1ccc(F)c(F)c1` [Example 198] gave an IC50 at PDK1 (inhibition of PDK1 in vitro) of under 0.1 µM. Besides, the EC50 in experiment [1] (setting [4]) was under 1 µM. Take `O=C(NCc1ccc(F)c(F)c1)c1cccnc1NCc1nc(-c2c[nH]c3ncccc23)cs1` [Ex. 6.11, N-(3,4-difluorobenzyl)-2-({[4-(1H-pyrrolo[2,3-b]pyridin-3-yl)-1,3-thiazol-2-yl]methyl}amino) pyridine-3-carboxamide]: the IC50 at PDK1 (setting [2]) was 0.1 to 1 µM. In addition, in experiment [1] (setting [3]), the EC50 fell in the range of 1 to 10 µM. For the compound `O=C(NCc1ccc(F)c(F)c1)c1cccnc1NCc1ccc(-c2ccc3ncnc(N4CCOCC4)c3c2)s1` [Example 4.11, N-(3,4-difluorobenzyl)-2-(((5-(4-morpholinoquinazolin-6-yl)thiophen-2-yl)methyl)amino)nicotinamide], the IC50 at PDK1 (setting [2]) was under 0.1 µM. Further, the EC50 in experiment [1] (setting [3]) is over 10 µM. As for `Nc1ncnc2ccc(-n3cc(CNc4ncccc4C(=O)NCc4ccc(F)c(F)c4)nn3)cc12` [Ex. 9.1, 2-((1-(4-aminoquinazolin-6-yl)-1H-1,2,3-triazol-4-yl)methylamino)-N-(3,4-difluorobenzyl)nicotinamide], the IC50 at PDK1 (setting [2]) fell in the range of 0.1 to 1 µM. Besides, the EC50 in experiment [1] (setting [3]) was over 10 µM. At PDK1 (inhibition of PDK1 in vitro), `C[C@H](NC(=O)c1cc(C#N)cnc1NCc1ccc(-c2cnc(N)c(C(=O)NCC(O)CO)n2)cc1)c1ccc(F)cc1` (stereo partly drawn) [Example 347, 3-amino-6-(4-((5-cyano-3-((S)-1-(4-fluorophenyl)ethylcarbamoyl)pyridin-2-ylamino)methyl)phenyl)-N-(2,3-dihydroxypropyl) pyrazine-2-carboxamide] showed an IC50 of under 0.1 µM. Further, in experiment [1] (setting [5]), the EC50 is under 1 µM. `C[C@H](NC(=O)c1cc(C#N)cnc1NCc1ccc(-c2cnc(N)c(CCC(C)(C)N)n2)cc1)c1ccc(F)cc1` [Example 82, 2-{4-[5-Amino-6-(3-amino-3-methyl-butyl)-pyrazin-2-yl]-benzylamino}-5-cyano-N-[(S)-1-(4-fluoro-phenyl)-ethyl]-nicotinamide] returned an IC50 against PDK1 (inhibition of PDK1 in vitro) of under 0.1 µM. Further, the EC50 in experiment [1] (setting [4]) was under 1 µM. The matching figures for `O=C(NCc1ccc(F)c(F)c1)c1cc(C(F)(F)F)cnc1NCc1ccc(-c2cnc3[nH]c(=O)[nH]c3c2)cc1` [Example 123, N-(3,4-difluorobenzyl)-2-(4-(2-oxo-2,3-dihydro-1H-imidazo[4,5-b]pyridin-6-yl)benzylamino)-5-(trifluoromethyl) nicotinamide]: under 0.1 µM and under 1 µM.

Take `C[C@H](NC(=O)c1nc(C#N)cnc1NCc1ccc(-c2cnc3[nH]ncc3c2)cc1)c1ccc(F)cc1` [Example 389, 6-Cyano-3-[4-(1H-pyrazolo [3,4-b]pyridin-5-yl)-benzylamino]-pyrazine-2-carboxylic acid [(S)-1-(4-fluoro-phenyl)-ethyl]-amide]: the half-maximal inhibitory concentration (IC50) against PDK1 (inhibition of PDK1 in vitro) is under 0.1 µM. Besides, the EC50 in experiment [1] (setting [4]) was under 1 µM. For the compound `C[C@H](NC(=O)c1cccnc1NCc1ccc(-c2ccc3ncnc(N)c3c2)s1)c1ccc(F)c(F)c1` [Example 3.41, (S)-2-(((5-(4-aminoquinazolin-6-yl)thiophen-2-yl)methyl)amino)-N-(1-(3,4-difluorophenyl)ethyl) nicotinamide (TFA salt)], on PDK1 (setting [2]), the IC50 was under 0.1 µM. Besides, the EC50 in experiment [1] (Homo sapiens, PC-3, 2 h, inhibition of P308 Akt in PC-3 cells, MSD) is under 1 µM. The compound `Cn1nc(Nc2ncccc2C(=O)NCc2ccc(F)c(F)c2)c2cc(-c3ccc4ncnc(N)c4c3)ccc21` [Example 14.2, 2-(5-(4-aminoquinazolin-6-yl)-1-methyl-1H-indazol-3-ylamino)-N-(3,4-difluorobenzyl)-nicotinamide] showed an IC50 at PDK1 (setting [2]) of under 0.1 µM. The EC50 in experiment [1] (setting [3]) is over 10 µM. Take `Nc1ncnc2ccc(-c3ccc(CNc4ncccc4S(=O)(=O)NCc4ccc(F)c(F)c4)s3)cc12` [Example 20.2, 2-(((5-(4-aminoquinazolin-6-yl)thiophen-2-yl)methyl)amino)-N-(3,4-difluorobenzyl)pyridine-3-sulfonamide]: the IC50 against PDK1 (setting [2]) was over 5 µM. As to `C[C@H](NC(=O)c1cccnc1NCc1ccc(-c2ccc3ncncc3c2)s1)c1ccc(F)cc1` [Example 2.11, (S)-N-(1-(4-fluorophenyl)ethyl)-2-(((5-(quinazolin-6-yl)thiophen-2-yl)methyl)amino)nicotinamide], the IC50 against PDK1 (setting [2]) is 0.1 to 1 µM. Take `O=C(NC1CC1)c1cccnc1NCc1cccc(-c2c[nH]c3ncccc23)c1` [Example 1.12, N-cyclopropyl-2-{[3-(1H-pyrrolo [2,3-b]pyridin-3-yl)benzyl]amino} pyridine-3-carboxamide]: the IC50 on PDK1 (setting [2]) was over 5 µM.
